Measurements taken from US20250255847A1, “[…]s: Novel Drugs for Triple Negative Breast Cancer” (SIMMARON RSEARCH INC, priority 2024, published 2025).

Key:
TNBC tumor parenchyma = experiment: Histology, IHC and TUNEL of PDX tumor tissue; assay type: in vivo, mouse; settings: for H&E staining: size and color intensities of tumor cells: 2 mg/Kg Bwt i.p.; for apoptosis in TNBC tumor (TUNEL staining): FIG. 14; for Ki-67 immunoreactivity in tumor parenchyma: p<0.0001 vs control
Experimental: FIG. 13 illustrates an embodiment of the present invention and illustrates the effects of SIM-1 and SIM-2 on the growth arrest of TNBC tumors. […] The higher magnification images were given below. (B) Area of 50 randomly selected cells (10 different images from n=5 mice/group) from three different groups were measured using polygon tool of ImageJ software and then the scatter histogram analysis was performed using GraphPad Prism 10 statistical software package. The significance of mean between groups (***p<0.001 versus control) was calculated by one-way ANOVA analysis (effector: treatment). (C) IHC staining of cell growth marker Ki-67 in vehicle-, SIM-1-, and SIM-2-treated tumors represents the cell growth property of tumor cells. […] Both hematoxylin-ir nuclei (total cells) and Ki-67-ir cells were counted in n=15 images per group, converted in percent scale, and then plotted as scatter histogram. ****p<0.0001 vs. control as derived by one-way ANOVA. (E) IHC staining of cell proliferation marker PCNA in three different groups. (F) Scatter histogram analysis of […] counted from n=15 images per group and then plotted as percent scale. […] (G) A gene array of 84 genes in a validated human breast cancer gene array (RT^2 Profiler™ PCR array; Cat #PAHS-131ZA; Qiagen) was conducted in cDNA samples extracted from TNBC tumors of vehicle, SIM-1- and SIM-2-treated (n=3) groups. The resultant gene expressions were converted in log scale and then compared with the vehicle in (G) SIM-1 and (H) SIM-2 treated groups as shown in scatter plots. […] (I) Validation of gene expressions of CCND1, CCND2, CCNE1, CDK2 genes were performed by real-time PCR analysis. (J) Upregulations of CDKN1A, and CDKN2A in SIM-1- and SIM-2-treated groups were validated by real-time PCR analyses. were Significance of mean calculated by one-way ANOVA resulted […] versus respective vehicle-groups. The results are confirmed after three different experiments.
(A) TUNEL staining to monitor apoptosis of tumor cells among all groups followed by (B) counting of TUNEL-ir cells from n=15 images per group and then plotting a scatter histogram analysis. ****p<0.0001 vs. control as derived by one-way ANOVA. (C) A protein array of 35 different apoptosis-related proteins (Human apoptosis array; Cat #ARY009; R&D Systems) was conducted in the tumor tissue extracts of three different groups. Red, purple, and green squares represent the expressions of Bad, Bax, and Cytochrome C proteins respectively. Black enclosures represent the positive controls. (D) Heatmap analysis summarizes the expressions of breast cancer 84 validated breast cancer-associated genes (RT^2 Profiler™ PCR array; Cat #PAHS-131ZA; Qiagen). These genes critically regulate the growth and apoptosis of breast cancer cells. The details of the genes can be found here (geneglobe.qiagen.com/us/product-groups/rt2-profiler-pcr-arravs/PAHS-131Z). Scatter plot analyses in FIG. 13G and FIG. 13H was performed to compare the relative expressions of apoptotic genes and growth suppressive genes between the vehicle- and SIM-1-treated as well as the vehicle- and SIM-2-treated groups.
Immunohistochemical (IHC) analyses. Tumor tissues were embedded in paraffin, cut at a thickness of 5 μm in Leica microtome, attached to a charged slide, dried in a dry bath at 37° C. for at least 48 hrs., and then progressed for IHC analysis. The IHC analysis was performed where, briefly, sections were deparaffinized by xylene and rehydrated by ethanol gradient (100%>70%>50%>20%; v/v) followed by complete rehydration by water. […]

[1] = system: STAT3-dependent tumor-promoting genes; experiment: Gene array of 66 STAT3-dependent tumor-promoting genes in PDX tumors; assay type: in vivo, mouse; settings: tumor tissue; for number of the 66 STAT3-dependent genes strongly downregulated: out of 66 genes
Experimental: FIG. 15 illustrates an embodiment of the present invention and illustrates SIM 1 and 2 inhibited Y705P phosphorylation of STAT3 and the expressions of STAT3-dependent tumor supportive genes. (A) DAB immunostaining of Y705P STAT3 in tumor parenchyma of all three groups. (B) Quantitative analysis of Y705P STAT3-ir cells was performed by counting Y705P STAT3 cells in 15 different images, converting into a percent scale, and then plotting in a scatter histogram. On-way ANOVA followed by multiple comparison test indicated ****p<0.0001 versus control. (C) DAB immunostaining of S727P STAT3 followed by a (D) quantitative analysis of S727P STAT3-ir cells was performed in 15 different images and then plotted as a percent of total cells by a scatter histogram. On-way ANOVA represents no significance (NS) between groups. (E) Immunoblot analyses of Y705PSTAT3 (Rabbit […] antibody Cat #710093; Invitrogen), S727PSTAT3 (Mouse 1° antibody cat #MA5-15208; Invitrogen) followed by normalization with loading control β-actin (Mouse 1° antibody cat #MA1-744; Invitrogen). (F) A cDNA-based gene array of 66 STAT3-dependent tumor promoting genes were analyzed in TNBC tumors of vehicle-, SIM-1-, and SIM-2-treated mice. (G) A scatter plot summarized the gene array results. Based on the relative levels of expressions, gene levels were classified as low, moderate, and highly expressed. Results are confirmed after three different experiments.
These genes include anti-apoptotic genes such as bcl-2, survivin, and bcl-xl; cell cycle progression markers such as cyclin D1, akt, and p21.

| Compound | H&E staining: size and color intensities of tumor cells (TNBC tumor parenchyma) | apoptosis in TNBC tumor (TUNEL staining) (TNBC tumor parenchyma) | Ki-67 immunoreactivity in tumor parenchyma (TNBC tumor parenchyma) | number of the 66 STAT3-dependent genes strongly downregulated [1] | tumor growth suppressor gene p53 expression [1] |
| --- | --- | --- | --- | --- | --- |
| CCOC(=O)c1c(NC(C)=O)sc2c(Cl)c(/C=N/O)ccc12 [SIM-2, ethyl 2-acetamido-7-chloro-6-(hydroxyiminomethyl)-1-benzothiophene-3-carboxylate] | strongly reduced the size and color intensities of cells | weakly induced apoptosis | strong reduction | 55 | significantly upregulated |
| O=C(O)CCC(=O)NCc1csc2ccc(Cl)cc12 [SIM-1, 4-[(5-chloro-1-benzothiophen-3-yl)methylamino]-4-oxobutanoic acid] | strongly reduced the size and color intensities of cells | weakly induced apoptosis | strong reduction | 55 | significantly upregulated |
